Peptide text beside a SMILES is read from it. * marks the point of attachment. X1 = CN1/C(=C/C=C/C=C/C2=[N+](CCCCCC(=O)*)c3ccc4ccccc4c3C2(C)C)C(C)(C)c2c1ccc1ccccc21
How the values were obtained:
[1] = test system: infarcted heart; set-up: species or system C57BL/6 mice; conditions: mouse, in vivo
Method: ^Cy5.5TDCNfs, ^Cy5.5SAA1-7, and ^Cy5.5Ang1-7 were injected intravenously into the mice via tail vein at a dose of 0.2 mg. The images were captured at the prefixed time. Next, the mice were sacrificed to harvest their hearts and major organs. The samples were imaged at an excitation wavelength of 630 nm and an emission wavelength of 700 nm using an in vivo imaging system (FX PRO, BRUKER, Germany). The images were analyzed using the BRUKER Molecular Imaging Software. The targeting ability of compounds was defined by HTI = heart fluorescence emission/liver fluorescence emission.
Frozen sections were prepared in vivo, as described previously. For drugs distribution, near-infrared laser imager (GE Amersham Typhoon, Sweden) was used to capture full cross section of hearts. For co-localization experiments, the mice hearts were dissected 24 h post-injection of drugs. Anti-AT1R primary antibody (1:200 dilution) was used as the primary antibody. For fibrosis investigation, the frozen sections were incubated with primary antibodies against α-SMA (1:400 dilution). […]
manufacturer ’s protocol. […] The TUNEL positive cells were observed by the fluorescence microscope (λexc = 488 nm for TUNEL, λexc = 405 […]
(§1) Intracellular ROS was quantified with dihydroethidium (DHE). […] Intracellular ROS were detected by the fluorescence microscope (λexc = 532 nm for DHE, λexc = 405 nm for Hoechst 33342). […]

[2] = test system: NRCFs; assay: Conditioned medium interference experiments (TGF-β1 in CM, α-SMA in NRCFs); format: cell-based, rat; conditions: NRCFs cultured 24 h with conditioned medium of pretreated OGD NRCMs, immunofluorescence, n = 3
Method: Next, the cells were blocked by incubating with goat serum for 30 min and incubated with primary antibodies overnight at 4 °C. The primary antibodies used here included anti-AT1R (1:200 dilution), anti-cTNT (1:500 dilution), anti-P65 (1:800 dilution), and anti‐α-SMA (1:400 dilution). The cells were incubated with FITC-labeled Goat Anti-Rabbit IgG (1:200 dilution) or Cy3-labeled Goat Anti-Mouse IgG (1:200 dilution) for 2 h at room temperature. The cells were counterstained with DAPI and imaged using a fluorescence microscope (Leica Dmi8, Germany).
CM from untreated or compound-treated cells were produced as follows. NRCMs were seeded in 35 mm culture dishes at 1 × 10^6 cells per well and incubated in growth medium containing different compounds or in media devoid of compounds for 12 h. Next, the media were replaced with serum-free medium, and the cells were cultured under hypoxia for 6 h. The CM was collected and centrifuged to culture NRCFs after a 12 h starvation period. Immunofluorescence of α-SMA was analyzed as per protocol after 24 h.
(§2) The serum and CM were collected at the indicated time points from the different groups of mice. The levels of TNF-α, IL-6, ALT, Cre, and TGF-β1 were measured using ELISA kits according to the manufacturer's protocol. The absorbance was measured at 450 nm using a microplate reader.

[3] = test system: NRCMs; assay: Intracellular ROS with DHE probe; format: cell-based, rat; conditions: OGD NRCMs, 10 μM; OGD group 5.72-fold; n = 3
Method: The cells were counterstained with DAPI and were observed under a fluorescence microscope (details in Supporting Information). […]
(§3) manufacturer ’s protocol. Cells were then stained with DAPI. The TUNEL positive cells were observed by the fluorescence microscope (λexc = 488 nm for TUNEL, λexc = 405 […]
Intracellular ROS was quantified with dihydroethidium (DHE). After incubated with different treatments under OGD condition, NRCMs were then cultured with DMEM medium containing […] of DHE for 30 min at 37 ℃ and then wash ed twice with PBS. Nucleuses of NRCMs were dyed by Hoechst 33342 stain solution for 30 min at 37 °C. Intracellular ROS were detected by the fluorescence microscope (λexc = 532 nm for DHE, λexc = 405 nm for Hoechst 33342).
Adult male C57BL/6 mice (20-30g, 8-10 weeks old) were purchased from the laboratory animal center of Southern Medical University. For the MI model, mice were subjected to permanent l eft anterior descending (LAD) ligation as described previously. In brief, the animals were anesthetized using 1.5% sodium pentobarbital (50 mg/kg) through intraperitoneal i njection, and mice were ventilated with a rodent ventilator subsequently. We exposed mice hearts by the fourth intercostal space incision and a subsequent pericardium removal. The LAD was ligated using an 8-0-prolene suture permanently to perform MI generation. […]

[4] = test system: MI mouse model; assay: Masson's trichrome staining, infarct size; format: in vivo, C57BL/6 mice; conditions: MI mice, 4 weeks, collagen area/LV area, MI group 36.60%, vehicle 1219.84 μg/kg, n = 5
Method: (§4) Adult male C57BL/6 mice (20-30 g, 8-10 week) were purchased from the laboratory animal center of Southern Medical University, China. The protocols were approved according to the Zhujiang Hospital of Southern Medical University animal care and use committee guidelines, which conform to the guide for the care and use of laboratory animals published by the US National Institutes of Health (8th edition, 2011). […] Next, 100 µL of different drugs were administered intravenously through tail vein injection every 2 days for 3 weeks, while the mice in the Sham and MI groups were treated with an equal volume of PBS.
The mice were sacrificed at 4 weeks after the induction of MI, and hearts and major organs were harvested and fixed in 4% paraformaldehyde overnight and embedded in paraffin. The hearts were sectioned to 5 µm along the short axis transversely across the infarct zone. The major organs were sectioned to 5 µm along the short axis. Following deparaffinization and dehydration, the samples underwent H&E and Masson's trichrome staining. The sections were observed under a microscope to evaluate the therapeutic effect and safety of the drugs. The collagen and LV areas were measured using the Image-Pro Plus software (version 6.0; Media Cybernetics, Silver Spring, MD, USA). Infarct size (%) was calculated as the ratio of the collagen area to the LV area.

[5] = test system: MI mouse model; assay: Echocardiography post-MI; format: in vivo, C57BL/6 mice; conditions: MI mice, 4th week, tail vein every 2 days (TDCNfs 1084.16, T+A 328.96+576, Tel 328.96, Ang1-7 576 μg/kg); MI group approx 16%; n = 5
Method: as §4
Twenty-eight days after surgery, the mice were anesthetized through the inhalation of isoflurane (1-1.5%) in O2 and echocardiographic examination was performed using a Vevo 2100 System equipped with a 30 MHz transducer (FUJIFILM Visual Sonics, Canada). The LVEDD, LVESD, LVEFs, and LVFS were measured. All measurements were repeated for at least three consecutive pulsation cycles and the data were averaged for statistical analysis. […]
as §3, §1

[6] = test system: p-AKT, Bax/Bcl-2, cleaved caspase-3; assay: Western blot of apoptosis-related proteins in OGD NRCMs; format: cell-based, rat; conditions: vs OGD group, n = 3
Method: AKT, p-AKT, Bax, Bcl-2, cleaved caspase-3, P65, TGF-β1, Histone3, AT1R, GAPDH were quantified by western blot analysis. Protein concentration was determined using the bicinchoninic acid (BCA) method. SDS-PAGE was conducted to separate the proteins in each sample (30-50 µg of protein per lane), which were subsequently transferred to a PVDF membrane. The membranes were treated with blocking buffer for 2 h at room temperature and then incubated overnight with primary antibodies at 4 °C. The primary antibodies used included anti-Phospho-AKT (1:1000 dilution), anti-AKT (1:1000 dilution), anti-caspase-3 (1:1000 dilution), anti-Bcl-2 (1:100 dilution), anti-Bax (1:1000 dilution), anti-P65 (1:800 dilution), anti-TGF-β1 (1:1000 dilution), anti-Histone 3 (1:1000 dilution) and anti-AGTR1 (1:1000 dilution). The results were normalized by comparison to parallel western blots for glyceraldehyde 3-phosphate dehydrogenase (GAPDH, 1:8000 dilution). Optical density was measured using an image processing analysis program.

[7] = test system: MI mouse model; assay: In vivo mechanism: caspase-3 IHC, α-SMA immunofluorescence, type I collagen, TGF-β1, serum cytokines; set-up: species or system C57BL/6 mice; conditions: MI mice, n = 5
Method: Frozen sections were prepared in vivo, as described previously. For drugs distribution, near-infrared laser imager (GE Amersham Typhoon, Sweden) was used to capture full cross section of hearts. For co-localization experiments, the mice hearts were dissected 24 h post-injection of drugs. Anti-AT1R primary antibody (1:200 dilution) was used as the primary antibody. For fibrosis investigation, the frozen sections were incubated with primary antibodies against α-SMA (1:400 dilution). The staining signals were visualized using FITC-labeled Goat Anti-Rabbit IgG (1:200 dilution) or Cy3-labeled Goat Anti-Rabbit IgG (1:200 dilution). The sections were counterstained with DAPI and examined under a laser confocal scanning microscope (Leica TCS SP8, Germany).
The heart tissues were fixed in 4% paraformaldehyde, dehydrated in ethanol, cleared in xylene, and embedded in paraffin. The samples were then cut into 6 μm sections on a microtome and deparaffinized. The sections were blocked by incubating with 1% BSA at room temperature for 30 min and then incubated overnight with anti-cleaved caspase-3 (1:700 dilution), anti-AT1R (1:100 dilution), anti-Collagen I (1:200 dilution) at 4 °C. Next, the sections were washed and incubated with secondary antibodies (1:500 dilution) at room temperature. The tissue sections were incubated with diaminobenzidine and counterstained with hematoxylin, dehydrated, and mounted before viewing under a microscope.
as §2

[8] = test system: NRCMs; assay: TUNEL staining of OGD NRCMs; format: cell-based, rat; conditions: 10 μM, 2-3 h, OGD group 26.70%, n = 3

SMILES	overlapping signals with AT1R in infarct zone compared with Cy5.5TDCNfs group [1]	reduction of α-SMA levels in NRCFs compared to the OGD group [2] [%]	fluorescence intensity of superoxide anion (DHE) compared to the control group [3] [fold]	infarct size [4] [%]	left ventricular ejection fractions (LVEFs) [5] [%]	decrease of Bax/Bcl-2 value [6] [%]	increase of p-AKT expression [6]	α-SMA expression in the non-infarcted area ([7]; 4 weeks post-treatment, immunofluorescence)	caspase-3 expression in infarct border zone ([7]; immunohistochemistry)	TUNEL-positive NRCMs [8] [%]
CC[C@H](C)[C@H](NC(=O)[C@H](Cc1ccc(O)cc1)NC(=O)[C@@H](NC(=O)[C@H](CCCNC(=N)N)NC(=O)[C@H](CC(=O)O)NC(=O)CNC(=O)CCCCC[N+]1=C(/C=C/C=C/C=C2/N(C)c3ccc4ccccc4c3C2(C)C)C(C)(C)c2c1ccc1ccccc21)C(C)C)C(=O)N[C@@H](Cc1c[nH]cn1)C(=O)N1CCC[C@H]1C(=O)O [Cy5.5Ang1-7] (X1-GDRVYIHP-OH)	significantly lower	–	–	–	–	–	–	–	–	–
CCCc1nc2c(C)cc(-c3nc4ccccc4n3C)cc2n1Cc1ccc(-c2ccccc2C(=O)O)cc1 [Tel, telmisartan]	–	20.48	3.23	25.80	29.54	76.3	more than 10 fold	inhibited to a certain extent	reduced moderately	17.62
